Measurements taken from US8188085B2, “Antifungal agents” (Merck Sharp & Dohme Corp., priority 2008, dated 2012).

Biological target: glucan synthase (GS) prepared from Candida albicans MY1055 (Candida albicans, UniProt O13428)
Assay: Glucan synthase inhibition (polymerization assay, 96-well)
Type: biochemical
Conditions: GS from C. albicans MY1055; 60 min incubation at 22° C.; read-out: Candida Albicans GS IC50 (converted)
Method in brief: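 Partially purified glucan synthase from C. albicans MY1055 membranes incorporated 0.5 mM ³H-UDPG with 25 μM GTP-γ-S, HEPES pH 7.5, over 60 min at 22 °C. TCA-precipitated glucan was counted by scintillation. IC50 (ng/mL) came from sigmoidal fits of duplicate 3-fold dilution series.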

Chain of glucan synthase (GS) prepared from Candida albicans MY1055 (O13428 1-1897): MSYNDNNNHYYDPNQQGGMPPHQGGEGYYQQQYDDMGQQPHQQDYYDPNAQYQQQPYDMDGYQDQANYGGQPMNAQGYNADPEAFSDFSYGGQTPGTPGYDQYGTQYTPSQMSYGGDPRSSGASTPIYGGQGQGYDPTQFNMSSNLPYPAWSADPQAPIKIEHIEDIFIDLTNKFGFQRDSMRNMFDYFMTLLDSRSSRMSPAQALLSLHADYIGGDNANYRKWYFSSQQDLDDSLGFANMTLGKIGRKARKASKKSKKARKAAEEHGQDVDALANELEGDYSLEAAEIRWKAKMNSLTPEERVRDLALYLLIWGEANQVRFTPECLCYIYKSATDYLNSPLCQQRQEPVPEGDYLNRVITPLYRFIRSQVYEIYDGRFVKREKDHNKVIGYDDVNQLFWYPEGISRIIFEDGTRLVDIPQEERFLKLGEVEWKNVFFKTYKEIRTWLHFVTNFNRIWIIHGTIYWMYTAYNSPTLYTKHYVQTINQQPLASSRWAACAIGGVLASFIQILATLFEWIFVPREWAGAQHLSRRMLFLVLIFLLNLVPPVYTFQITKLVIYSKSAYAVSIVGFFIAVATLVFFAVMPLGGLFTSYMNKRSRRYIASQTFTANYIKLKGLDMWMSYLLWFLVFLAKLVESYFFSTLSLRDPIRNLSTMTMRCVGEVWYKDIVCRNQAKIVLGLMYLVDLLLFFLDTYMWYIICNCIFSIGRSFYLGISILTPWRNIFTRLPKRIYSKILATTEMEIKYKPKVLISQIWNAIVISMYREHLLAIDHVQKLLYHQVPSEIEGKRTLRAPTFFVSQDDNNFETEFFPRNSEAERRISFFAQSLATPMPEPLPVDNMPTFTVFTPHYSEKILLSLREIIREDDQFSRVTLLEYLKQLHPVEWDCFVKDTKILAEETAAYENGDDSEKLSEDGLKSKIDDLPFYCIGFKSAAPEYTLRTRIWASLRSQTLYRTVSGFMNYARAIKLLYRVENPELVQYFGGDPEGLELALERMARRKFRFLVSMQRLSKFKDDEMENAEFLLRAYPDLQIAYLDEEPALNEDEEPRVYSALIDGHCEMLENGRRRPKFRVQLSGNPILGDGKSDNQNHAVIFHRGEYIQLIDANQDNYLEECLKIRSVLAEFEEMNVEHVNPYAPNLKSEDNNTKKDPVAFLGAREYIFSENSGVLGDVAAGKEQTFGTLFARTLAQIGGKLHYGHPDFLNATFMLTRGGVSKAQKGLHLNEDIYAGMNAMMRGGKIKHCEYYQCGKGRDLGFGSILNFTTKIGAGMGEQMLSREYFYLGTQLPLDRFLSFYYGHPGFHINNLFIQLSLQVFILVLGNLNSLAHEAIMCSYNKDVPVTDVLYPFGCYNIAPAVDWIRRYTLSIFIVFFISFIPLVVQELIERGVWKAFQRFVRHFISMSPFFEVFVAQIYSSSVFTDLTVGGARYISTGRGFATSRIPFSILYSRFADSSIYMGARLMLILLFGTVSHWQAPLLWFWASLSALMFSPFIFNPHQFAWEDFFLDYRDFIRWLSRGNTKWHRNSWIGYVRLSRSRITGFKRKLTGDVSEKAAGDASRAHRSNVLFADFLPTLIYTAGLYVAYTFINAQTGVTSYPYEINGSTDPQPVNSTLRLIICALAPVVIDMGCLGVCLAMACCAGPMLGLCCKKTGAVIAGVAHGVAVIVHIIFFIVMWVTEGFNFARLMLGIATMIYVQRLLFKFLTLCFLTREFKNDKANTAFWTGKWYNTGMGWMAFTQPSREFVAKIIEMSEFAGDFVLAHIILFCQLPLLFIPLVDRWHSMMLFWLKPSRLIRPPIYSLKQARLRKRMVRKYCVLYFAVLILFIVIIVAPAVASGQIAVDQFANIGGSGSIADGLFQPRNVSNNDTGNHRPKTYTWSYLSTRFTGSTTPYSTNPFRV

IC50: 12 nM
SMILES: CN[C@@](C)(CO[C@H]1[C@H](n2cnc(N)n2)C[C@@]23COC[C@]1(C)[C@@H]2CC[C@H]1C3=CC[C@@]2(C)[C@H](C(=O)O)[C@@](C)([C@H](C)C(C)C)CC[C@]12C)C(C)C [Example 5, (1S,4aR,6aS,7R,8R,10aR,10bR,12aR,14R,15R)-14-(3-amino-1H-1,2,4-triazol-1-yl)-15-[[(2R)-2,3-dimethyl-2-(methylamino)butyl]oxy]-8-[(1R)-1,2-dimethylpropyl]-1,6,6a,7,8,9,10,10a,10b,11,12,12a-dodecahydro-1,6a,8,10a-tetramethyl-4H-1,4a-propano-2H-phenanthro[1,2-c]pyran-7-carboxylic acid]
